Measured values: patent US7994163B2, “6-substituted-2,3,4,5-tetrahydro-1H-benzo[d]azepines as 5-HT2C receptor agonists” (Eli Lilly and Company, priority 2005, dated 2011)
Structures can show the parent of a compound that is named as a salt.

How the values were obtained:
Wistar rats [1] = details: general statement on standards; cited from earlier work
male NIH Swiss mice [2] = assay: Marble burying assay (with rotorod); assay type: in vivo; details: with rotorod performance
Procedure: House experimentally-naïve male, NIH Swiss mice (Harlan Sprague-Dawley, Indianapolis, Ind.) weighing between 28-35 g in groups of 12 for at least three days prior to testing in a vivarium with 12 h light and dark cycles. Conduct experiments during the light cycle in a dimly lit experimental testing room. Dose mice with vehicle or test compound and, after a specified pretreatment interval (generally 30 min.), place each mouse individually on a rotorod (Ugo Basile 7650) operating at a speed of 6 revolutions/min. and observe for falling. After 2 min. on the rotorod, place the mice individually in a 17×28×12 cm high plastic tub with 5 mm sawdust shavings on the floor that are covered with 20 blue marbles (1.5 cm diameter) placed in the center. After 30 min., count the number of marbles buried (⅔ covered with sawdust). Assess the test compound's effect on marble burying with Dunnett's test and the effect on rotorod performance by Fisher's exact test.
Clinically effective standard compounds suppress marble burying at doses that are devoid of motor-impairing effects as measured on the rotorod. The in vivo efficacy of 5HT2C compounds at the 5HT2C receptor is confirmed by the prevention of effects of the 5HT2C agonists on marble burying by co-administration of the 5HT2C receptor antagonist, 6-chloro-5-methyl-N-{2-[(2-methylpyridin-3-yl-oxy)pyridin-5-yl]aminocarbonyl}-2,3-dihydroindole.

male NIH Swiss mice [3] = assay: Nestlet shredding; assay type: in vivo; details: with motor effects (rotorod test)
Text: Mice naturally will construct nests of material available in their living environment. Since this behavior is obsessive in nature, it has been used to model OCD (Xia Li, Denise Morrow and Jeffrey M. Witkin, “Decreases in nestlet shredding of mice by serotonin uptake inhibitors: comparison with marble burying”, Psychopharmacology, submitted Jul. 14, 2003). House experimentally-naïve male, NIH Swiss mice (Harlan Sprague-Dawley, Indianapolis, Ind.) weighing between 28-35 g in groups of 12 for at least three days prior to testing in a vivarium with a 12 h light/dark cycle. Conduct experiments during the light cycle in an experimental room with normal overhead fluorescent lighting. Dose mice with vehicle or test compound and after a specified pretreatment interval (generally 30 min.), place the mice individually in a 17×28×12 cm high plastic tub with about 5 mm sawdust shavings on the floor along with a pre-weighed multi-ply gauze pad (51 mm square). After 30 min., weigh the remainder of the gauze pad not removed by the mouse. Determine the weight of the gauze used for nestlet construction by subtraction. Compare the results for test compound treated mice to the results for vehicle control treated mice with Dunnett's test.
Clinically effective OCD treatment standard compounds suppress nestlet shredding at doses that are devoid of motor-impairing effects as measured by the rotorod test. […]

Wistar rats [4] = assay: Schedule-induced polydipsia; details: rat, in vivo
Procedure: Maintain Wistar rats on a food restricted diet (to maintain 85% free feeding weight), but with free access to water. Train the rats in a behavioral testing chamber to press a lever to receive a food pellet under a fixed interval schedule, such that the rats are rewarded with a 45 mg food pellet the first time they press a lever after a 120 second interval has elapsed. The fixed interval is then reset to 120 seconds and the process repeated. Thus, during a 90 min. test session, the rats can earn a maximum of 45 pellets. The behavioral chamber is also equipped with a water bottle that is weighed before and after the session to determine the amount of water consumed.
Administer test compounds on Tuesdays and Fridays. Determine control day performances on Thursdays. Administer compounds either orally at 60 min. before the beginning of a test session, or subcutaneously at 20 min. before the beginning of a test session. Compare the rates of lever pressing and water consumption for each animal's performance during sessions after test compound treatment with that animal's performance during control sessions, expressed as a percent of the control rate. Average the individual percent of control rates for each dose and calculate the standard error of the mean. […]

## Clc1ccc2c(c1CSc1ncc[nH]1)CCNCC2 (as salt: phosphate) (hydrate or solvate)
other
  melting point: 243 to 245 °C

## CN(C)CCCN1c2ccccc2CCc2ccc(Cl)cc21 [chlomipramine]
Wistar rats [1]
  schedule-induced polydipsia, clinically effective OCD treatment standard compounds: suppress schedule-induced polydipsia without producing notable changes in motor patterns, food intake, or behavior the following day

## CN(C)CCCN1c2ccccc2Sc2ccc(Cl)cc21 [chlorpromazine]
Male NIH Swiss mice [2]
  marble burying behavior: decrease marble burying only at doses that also disrupt rotorod performance

## C[C@H](N)Cc1ccccc1 [d-amphetamine]
Male NIH Swiss mice [3]
  nestlet shredding: decreases nestlet shredding only at doses that produce motoric side effects
Wistar rats [4]
  Effect of 5-HT2C antagonist co-administration on suppression of polydipsia: not prevented by the 5HT2C receptor antagonist
  schedule-induced polydipsia (excessive drinking): decreases excessive drinking only at behaviorally stimulating doses

## CNCCC(Oc1ccc(C(F)(F)F)cc1)c1ccccc1 (stereo not shown) [fluoxetine]
Wistar rats [1]
  schedule-induced polydipsia, clinically effective OCD treatment standard compounds: suppress schedule-induced polydipsia without producing notable changes in motor patterns, food intake, or behavior the following day
